US8722849B2, “Polypeptides” (Novo Nordisk A/S, priority 2011, dated 2014)
Starred links: 1 amine or outer side, 2 acyl side, 3 side chain; linkers in the order of their positions; H or OH if unused. Positions of bridges follow the written chain, without caps; N, C: chain ends. Residues, ends and D or L forms follow the SMILES beside them. *: point of attachment. C20 diacid = O=C(O)CCCCCCCCCCCCCCCCCCC(=O)*; γGlu = O=C(O)[C@H](CCC(=O)[*:2])N[*:1]

What was measured:
food intake = assay: Assay (I) efficacy testing on appetite (food intake), ad libitum fed rat model; format: in vivo, Sprague Dawley (SD) rats
From the text: In the following examples reference is made to the following Assays: • Assay (I)— Experimental protocol for efficacy testing on appetite using an ad libitum fed rat model • ASSAY (II)a—Functional assay—Human calcitonin and amylin receptor assay • ASSAY (II)b—Functional assay—Rat calcitonin and rat amylin receptor assays • ASSAY (III)—ThT fibrillation assays for the assessment of physical stability of protein formulations • ASSAY (IV)—Determination of solubility • ASSAY (V)—Determination of binding to the human amylin receptor • ASSAY (VI)—Determination of the binding to the rat amylin receptor • ASSAY (VII)—Determination of binding to the human calcitonin receptor • ASSAY (VIII)—Determination of binding to the rat calcitonin receptor • ASSAY (IX)—pK—Determination of T % in mini-pig • ASSAY (X)—pK—Determination of T % in rat ASSAY (I)—Experimental Protocol for Efficacy Testing on Appetite Using an Ad Libitum Fed Rat Model
Sprague Dawley (SD) rats from Taconic Europe, Denmark are used for the experiments. The rats have a body weight 200-250 g at the start of experiment. The rats arrive at least 10-14 days before start of experiment to allow acclimatization to experimental settings. During this period the animals are handled at least 2 times. After arrival rats are housed individually for one week in a reversed light/dark phase (meaning that lights are off during daytime and on during nighttime) […]. Since rats are normally active and eat their major part of their daily food intake during the dark period, rats are dosed in the morning right before lights are turned off. This set-up results in the lowest data variation and highest test sensitivity. The experiment is conducted in the rats' home cages and rats have free access to food and water throughout the acclimatization period and the experiment period. Each dose of derivative is tested in a group of 5-8 rats. A vehicle group of 6-8 rats is included in each set of testing. Rats are dosed once according to body weight with a 0.01-3 mg/kg solution administered intraperitoneally (ip), orally (po) or subcutaneously (sc). The time of dosing is recorded for each group. After dosing, the rats are returned to their home cages, where they then have access to food and water. The food consumption is recorded individually continuously by on-line registration or manually every hour for 7 hours, and then after 24 h and sometimes 48 h. At the end of the experimental session, the animals are euthanised.
The individual data are recorded in Microsoft excel sheets. Outliers are excluded after applying the Grubbs statistical evaluation test for outliers, and the result is presented graphically using the GraphPad Prism program.

[1] = Assay (III) ThT fibrillation assay for physical stability; format: physicochemical
Outline: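 Freshly prepared formulations, pH-adjusted, with 1 μM ThT; four or eight replicates incubated at 37 °C under 960 rpm orbital shaking. Fluorescence (ex 444/em 485 nm) read every 20 min; […]. Peptide concentration measured by RP-HPLC before and after the run.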

| SMILES | Food intake reduction 0-24 h 3 nmol/kg (%) (food intake; 0-24 h) | Food intake reduction 24-48 h 3 nmol/kg (%) (food intake; 24-48 h) | ThT pH 4.0 lag time (h) ([1]; ThT fibrillation assay) | ThT pH 4.0 lag time ([1]; ThT fibrillation assay) [h] | ThT pH 4.0 lag time ([1]; Table 8) [h] | Food intake reduction 0-24 h 30 nmol/kg (%) (food intake; 0-24 h, 30 nmol/kg) | Food intake reduction 24-48 h 30 nmol/kg (%) (food intake; 24-48 h, 30 nmol/kg) |
| --- | --- | --- | --- | --- | --- | --- | --- |
| CC[C@H](C)[C@H](NC(=O)[C@@H]1CCCN1C(=O)CNC(=O)[C@H](Cc1ccccc1)NC(=O)[C@H](CC(N)=O)NC(=O)[C@H](CC(N)=O)NC(=O)[C@H](CO)NC(=O)[C@H](CO)NC(=O)[C@H](CCCNC(=N)N)NC(=O)[C@@H](NC(=O)[C@H](CC(C)C)NC(=O)[C@H](Cc1ccccc1)NC(=O)[C@H](CCC(=O)O)NC(=O)[C@H](C)NC(=O)[C@H](CC(C)C)NC(=O)[C@H](CCCNC(=N)N)NC(=O)[C@H](CCC(N)=O)NC(=O)[C@@H](NC(=O)[C@H](C)NC(=O)[C@@H]1CSSC[C@H](NC(=O)[C@H](Cc2c[nH]cn2)NC(=O)CC[C@H](NC(=O)CCCCCCCCCCCCCCCCCCC(=O)O)C(=O)O)C(=O)N[C@@H](CC(N)=O)C(=O)N[C@@H]([C@@H](C)O)C(=O)N[C@@H](C)C(=O)N[C@@H]([C@@H](C)O)C(=O)N1)[C@@H](C)O)C(C)C)C(=O)N[C@@H](CC(C)C)C(=O)N1CCC[C@H]1C(=O)N1CCC[C@H]1C(=O)N[C@H](C(=O)N[C@@H](CC(N)=O)C(=O)N[C@H](C(=O)NCC(=O)N[C@@H](CO)C(=O)N[C@@H](CC(N)=O)C(=O)N[C@H](C(=O)N[C@@H](Cc1ccc(O)cc1)C(N)=O)[C@@H](C)O)C(C)C)[C@@H](C)O [Example 15, N-alpha-[(S)-4-Carboxy-4-(19-carboxynonadecanoylamino)butyryl]-[His1,Glu14,Arg18]-pramlintide] ({C20 diacid-γGlu}-HCNTATCATQRLAEFLVRSSNNFGPILPPTNVGSNTY-NH2; disulfide 2-7 (inferred); C-terminus assumed) | 56 | 59 | 4.7 | – | – | – | – |
| CC[C@H](C)[C@H](NC(=O)[C@@H]1CCCN1C(=O)CNC(=O)[C@H](Cc1ccccc1)NC(=O)[C@H](CC(N)=O)NC(=O)[C@H](CC(N)=O)NC(=O)[C@H](CO)NC(=O)[C@H](CO)NC(=O)[C@H](Cc1c[nH]cn1)NC(=O)[C@H](Cc1c[nH]cn1)NC(=O)[C@H](CC(C)C)NC(=O)[C@H](Cc1ccccc1)NC(=O)[C@H](CCC(=O)O)NC(=O)[C@H](C)NC(=O)[C@H](CC(C)C)NC(=O)[C@H](CCCNC(=N)N)NC(=O)[C@H](CCC(N)=O)NC(=O)[C@@H](NC(=O)[C@H](C)NC(=O)[C@@H]1CSSC[C@H](NC(=O)[C@H](Cc2c[nH]cn2)NC(=O)[C@H](Cc2c[nH]cn2)NC(=O)CC[C@H](NC(=O)CCCCCCCCCCCCCCCCCCC(=O)O)C(=O)O)C(=O)N[C@@H](CC(N)=O)C(=O)N[C@@H]([C@@H](C)O)C(=O)N[C@@H](C)C(=O)N[C@@H]([C@@H](C)O)C(=O)N1)[C@@H](C)O)C(=O)N[C@@H](CC(C)C)C(=O)N1CCC[C@H]1C(=O)N1CCC[C@H]1C(=O)N[C@H](C(=O)N[C@@H](CC(N)=O)C(=O)N[C@H](C(=O)NCC(=O)N[C@@H](CO)C(=O)N[C@@H](CC(N)=O)C(=O)N[C@H](C(=O)N[C@@H](Cc1ccc(O)cc1)C(N)=O)[C@@H](C)O)C(C)C)[C@@H](C)O [Example 17, N-alpha-[(S)-4-Carboxy-4-(19-carboxynonadecanoylamino)butyryl]-His-[His1,Glu14,His17]-pramlintide] ({C20 diacid-γGlu}-HHCNTATCATQRLAEFLHHSSNNFGPILPPTNVGSNTY-NH2; disulfide 3-8 (inferred); C-terminus assumed) | 40 | 22 | 30.3 | 30.3 | – | – | – |
| CC[C@H](C)[C@H](NC(=O)[C@@H]1CCCN1C(=O)CNC(=O)[C@H](Cc1ccccc1)NC(=O)[C@H](CC(N)=O)NC(=O)[C@H](CC(N)=O)NC(=O)[C@H](CO)NC(=O)[C@H](CO)NC(=O)[C@H](Cc1c[nH]cn1)NC(=O)[C@H](Cc1c[nH]cn1)NC(=O)[C@H](CC(C)C)NC(=O)[C@H](Cc1ccccc1)NC(=O)[C@H](CCC(=O)O)NC(=O)[C@H](C)NC(=O)[C@H](CC(C)C)NC(=O)[C@H](CCCNC(=N)N)NC(=O)[C@H](CCC(N)=O)NC(=O)[C@@H](NC(=O)[C@H](C)NC(=O)[C@@H]1CSSC[C@H](NC(=O)[C@H](Cc2c[nH]cn2)NC(=O)CC[C@H](NC(=O)CCCCCCCCCCCCCCCCCCC(=O)O)C(=O)O)C(=O)N[C@@H](CC(N)=O)C(=O)N[C@@H]([C@@H](C)O)C(=O)N[C@@H](C)C(=O)N[C@@H]([C@@H](C)O)C(=O)N1)[C@@H](C)O)C(=O)N[C@@H](CC(C)C)C(=O)N1CCC[C@H]1C(=O)N1CCC[C@H]1C(=O)N[C@H](C(=O)N[C@@H](CC(N)=O)C(=O)N[C@H](C(=O)NCC(=O)N[C@@H](CO)C(=O)N[C@@H](CC(N)=O)C(=O)N[C@H](C(=O)N1CCC[C@H]1C(N)=O)[C@@H](C)O)C(C)C)[C@@H](C)O [Example 84, N-alpha-[(S)-4-Carboxy-4-(19-carboxynonadecanoylamino)butyryl]-[His1,Glu14,His17,Pro37]-pramlintide] ({C20 diacid-γGlu}-HCNTATCATQRLAEFLHHSSNNFGPILPPTNVGSNTP-NH2; disulfide 2-7 (inferred); C-terminus assumed) | 68 | 67 | 25.6 | 25.6 | 25.6 | – | – |
| CC[C@H](C)[C@H](NC(=O)[C@@H]1CCCN1C(=O)CNC(=O)[C@H](Cc1ccccc1)NC(=O)[C@H](CC(N)=O)NC(=O)[C@H](CC(N)=O)NC(=O)[C@H](CO)NC(=O)[C@H](CO)NC(=O)[C@H](Cc1c[nH]cn1)NC(=O)[C@H](CCCNC(=N)N)NC(=O)[C@H](CC(C)C)NC(=O)[C@H](Cc1ccccc1)NC(=O)[C@H](CCC(=O)O)NC(=O)[C@H](C)NC(=O)[C@H](CC(C)C)NC(=O)[C@H](CCCNC(=N)N)NC(=O)[C@H](CCC(N)=O)NC(=O)[C@@H](NC(=O)[C@H](C)NC(=O)[C@@H]1CSSC[C@H](NC(=O)[C@H](Cc2c[nH]cn2)NC(=O)[C@H](Cc2c[nH]cn2)NC(=O)[C@H](Cc2c[nH]cn2)NC(=O)CC[C@H](NC(=O)CCCCCCCCCCCCCCCCCCC(=O)O)C(=O)O)C(=O)N[C@@H](CC(N)=O)C(=O)N[C@@H]([C@@H](C)O)C(=O)N[C@@H](C)C(=O)N[C@@H]([C@@H](C)O)C(=O)N1)[C@@H](C)O)C(=O)N[C@@H](CC(C)C)C(=O)N1CCC[C@H]1C(=O)N1CCC[C@H]1C(=O)N[C@H](C(=O)N[C@@H](CC(N)=O)C(=O)N[C@H](C(=O)NCC(=O)N[C@@H](CO)C(=O)N[C@@H](CC(N)=O)C(=O)N[C@H](C(=O)N[C@@H](Cc1ccc(O)cc1)C(N)=O)[C@@H](C)O)C(C)C)[C@@H](C)O [Example 12, N-alpha-[(S)-4-Carboxy-4-(19-carboxynonadecanoylamino)butyryl]-His-His-[His1,Glu14,Arg17]-pramlintide] ({C20 diacid-γGlu}-HHHCNTATCATQRLAEFLRHSSNNFGPILPPTNVGSNTY-NH2; disulfide 4-9 (inferred); C-terminus assumed) | – | – | >45 | >45 | – | 70 | 45 |
